# Where two headings read alike, the source gives them in different places.
# Experiments:
# [1] = biological target: hERG (Homo sapiens, UniProt Q12809); assay: Inhibition effect on hERG; format: cell-based
# [2] = test system: rat seminal vesicle; assay: Seminal vesicle contraction caused by electrical stimulation of hypogastric nerve in normal rats; format: in vivo; conditions: P>0.05
# Description: Effect of DC037009 on Seminal Vesicle Contraction Caused by Electrical Stimulation of Hypogastric Nerve in Normal Rats
# [3] = pKa determination; format: physicochemical
# [4] = Solubility in different pH solution and pH changes of the solution; format: physicochemical
# [5] = In vitro metabolism in mouse liver microsomes; format: in vitro ADME, mice
# Experimental: (§1) The total volume of each incubation system was 200 μL, and the medium was 100 mM phosphate buffer solution (PBS, pH7.4) comprising a final concentration of 3 μM DC037009 and 2 mM NADPH. A37° C. water bath was used for incubation. After 3 minutes of pre-incubation, various liver microsomes protein were added into the buffer-substrate-cofactors mixture to start reaction. The concentration of liver microsomal protein of various species was 1.0 mg/mL. After reacting 60 min, the reaction was terminated with isovolumetric ice-cold acetonitrile. The total volume of blank was 200 μL, and the medium was 100 mM phosphate buffer solution (PBS, pH 7.4), comprising a final concentration of 3 μM DC037009 and heat inactivated microsomal proteins. All incubation samples were double.
# (§2) A 150 μL sample from each of double incubation samples was mixed. A 300 μL of acetonitrile was added, mixed by vortexing for 1 min, and centrifuged 5 min (11000 rpm). The supernatant was placed in a 10 mL tube, and dried in 40° C. with nitrogen stream. The residue was dissolved with 100 μL methanol/water (1:9, v/v). A 10 μL sample was taken for UPLC/Q-TOF MS analysis.
# [6] = In vitro metabolism in monkey liver microsomes; format: in vitro ADME
# Experimental: as §1, §2
# [7] = In vitro metabolism in dog liver microsomes; format: in vitro ADME
# Experimental: as §1, §2
# [8] = Acute toxicity experiment on SD rats by oral gavage; format: in vivo; conditions: rat, in vivo, single dose, oral gavage, read-out: maximum tolerated dose (MTD)
# Experimental: (§3) SD rats were administered compound DC037009 with single dose of 500 and 1000 mg/kg by oral gavage.
# [9] = test system: SD rats; assay: as above; format: in vivo; conditions: single dose of 500 and 1000 mg/kg by oral gavage
# Experimental: as §3
# [10] = pH = 1 solution after adding compound
# [11] = pH = 2 solution after adding compound
# [12] = pH = 4 solution after adding compound
# [13] = pH = 6 solution after adding compound
# [14] = pH = 8 solution after adding compound
# [15] = 3 μM DC037009, 1.0 mg/mL microsomal protein, NADPH, 60 min, UPLC/Q-TOF MS
# Sequence of hERG (Q12809 whole entry): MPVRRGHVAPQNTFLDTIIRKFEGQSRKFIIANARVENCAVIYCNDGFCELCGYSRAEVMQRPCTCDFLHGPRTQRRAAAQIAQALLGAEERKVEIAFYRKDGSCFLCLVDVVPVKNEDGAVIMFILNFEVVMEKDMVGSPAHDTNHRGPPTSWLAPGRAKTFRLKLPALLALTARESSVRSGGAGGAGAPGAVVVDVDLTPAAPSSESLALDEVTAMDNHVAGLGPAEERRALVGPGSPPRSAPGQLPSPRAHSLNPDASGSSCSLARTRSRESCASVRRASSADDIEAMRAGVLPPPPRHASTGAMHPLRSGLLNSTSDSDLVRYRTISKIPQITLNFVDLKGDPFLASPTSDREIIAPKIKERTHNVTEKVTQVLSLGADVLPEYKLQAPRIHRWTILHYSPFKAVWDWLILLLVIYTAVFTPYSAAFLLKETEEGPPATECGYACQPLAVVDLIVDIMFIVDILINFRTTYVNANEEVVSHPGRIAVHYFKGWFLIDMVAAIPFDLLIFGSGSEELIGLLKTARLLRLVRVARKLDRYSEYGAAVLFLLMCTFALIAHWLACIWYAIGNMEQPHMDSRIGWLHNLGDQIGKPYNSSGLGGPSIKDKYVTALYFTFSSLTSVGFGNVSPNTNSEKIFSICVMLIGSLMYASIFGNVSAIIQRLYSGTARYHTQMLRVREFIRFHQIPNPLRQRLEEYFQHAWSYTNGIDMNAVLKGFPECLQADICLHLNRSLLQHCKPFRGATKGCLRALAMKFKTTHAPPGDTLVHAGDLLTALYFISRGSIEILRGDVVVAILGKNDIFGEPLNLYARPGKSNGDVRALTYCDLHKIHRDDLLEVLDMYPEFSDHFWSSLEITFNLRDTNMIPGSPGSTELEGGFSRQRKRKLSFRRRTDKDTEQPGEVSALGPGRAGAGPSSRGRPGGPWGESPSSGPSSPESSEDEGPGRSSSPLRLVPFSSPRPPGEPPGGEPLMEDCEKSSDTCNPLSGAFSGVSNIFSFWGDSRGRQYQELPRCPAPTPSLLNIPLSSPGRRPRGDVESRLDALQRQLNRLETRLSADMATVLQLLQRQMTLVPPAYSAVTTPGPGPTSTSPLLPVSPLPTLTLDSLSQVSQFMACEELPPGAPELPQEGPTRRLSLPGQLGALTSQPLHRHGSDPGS
smiles,measurement,setting,value
"COc1cc2c(cc1OC)CN1CCc3cc4c(cc3[C@@H]1C2)OCO4 [DC037009, S-(−)-2,3-methylenedioxy-10,11-dimethoxy-5,8,13,13a-tetrahydro-6H-dibenzo[a,g]quinolizine]",antagonistic activity to α1A-receptor relative to inhibitory activity on hERG,[1],272 folds
same,IC50,[1]; hERG,8.1 µM
same,Maximum inhibition rate (%),[1]; hERG,84.7%
same,effect on contraction amplitude and area under contraction curve in rat seminal vesicle induced by electrical stimulation,[2],no significant inhibitive effect
same,pKa,"[3]; methanol, solvent CH3OH, read-out: pKa (CH3OH)",6.81
same,pKa,"[3]; water, solvent H2O, read-out: pKa (H2O)",7.28
same,pH of solution after adding compound,[4],would increase
same,solubility in acidic solution compared with alkaline solution,[4],greater than that in alkaline solution
same,solubility,"[4]; pH 2 solution, pH 2, simulated gastric fluid, pH = 2 solution, read-out: Solubility (1)",> 1000 µg/mL
same,solubility,"[4]; pH 2 solution, pH 2, simulated gastric fluid, pH = 2 solution, read-out: Solubility (2)",> 1000 µg/mL
same,solubility,"[4]; pH 4 solution, pH 4, aqueous buffer, pH = 4 solution, read-out: Solubility (1)",401 µg/mL
same,solubility,"[4]; pH 4 solution, pH 4, aqueous buffer, pH = 4 solution, read-out: Solubility (2)",403 µg/mL
same,Dissolving capacity,[4]; pH = 1 solution,Slightly soluble
same,pH value (1),[4]; [10],1.09
same,pH value (2),[4]; [10],1.03
same,solubility,"[4]; pH = 1 solution, pH 1, simulated gastric fluid, pH = 1 solution, read-out: Solubility (1)",> 1000 µg/mL
same,solubility,"[4]; pH = 1 solution, pH 1, simulated gastric fluid, pH = 1 solution, read-out: Solubility (2)",> 1000 µg/mL
same,Dissolving capacity,[4]; pH = 2 solution,Slightly soluble
same,pH value (1),[4]; [11],2.02
same,pH value (2),[4]; [11],2.07
same,Dissolving capacity,[4]; pH = 4 solution,Slightly soluble
same,pH value (1),[4]; [12],5.02
same,pH value (2),[4]; [12],5.10
same,Dissolving capacity,[4]; pH = 6 solution,Sparingly
same,pH value (1),[4]; [13],6.11
same,pH value (2),[4]; [13],6.14
same,solubility,"[4]; pH = 6 solution, pH 6, aqueous buffer, pH = 6 solution, read-out: Solubility (1)",46 µg/mL
same,solubility,"[4]; pH = 6 solution, pH 6, aqueous buffer, pH = 6 solution, read-out: Solubility (2)",50.2 µg/mL
same,Dissolving capacity,[4]; pH = 8 solution,Sparingly
same,pH value (1),[4]; [14],8.06
same,pH value (2),[4]; [14],8.07
same,solubility,"[4]; pH = 8 solution, pH 8, aqueous buffer, pH = 8 solution, read-out: Solubility (1)",< 10 µg/mL
same,solubility,"[4]; pH = 8 solution, pH 8, aqueous buffer, pH = 8 solution, read-out: Solubility (2)",< 10 µg/mL
same,"Mass area, mice",[5]; [15],6.3
same,kinds of metabolites detected in mouse liver microsome,[5]; 60 min incubation,eight
same,metabolic stability in mouse liver microsome,[5]; 60 min incubation,unstable
same,"Mass area, monkey",[6]; [15],1.6
same,kinds of metabolites detected in monkey liver microsome,[6]; 60 min incubation,seven
same,metabolic stability in monkey liver microsome,[6]; 60 min incubation,unstable
same,"Mass area, dog",[7]; [15],171.3
same,kinds of metabolites detected in dog liver microsome,[7]; 60 min incubation,six
same,metabolic stability in dog liver microsome,[7]; 60 min incubation,in second place
same,MTD,[8],1000 mg/kg
same,changes after anatomy,[9],no obvious drug-related changes

# — patent US9737517B2, “Pharmaceutical use of hexahydro-dibenzo[a,g]quinolizine compounds” (SHANGHAI INSTITUTE OF MATERIA MEDICA, CHINESE ACADEMY OF …, priority 2013, dated 2017)
